The experiment deals with HCV pseudoparticles, genotype 1a (H77C) E1 and E2 envelope. Briefly: HCV pseudoparticle infection assay (luciferase, Huh7 cells). In kind it is cell-based. As to conditions: Hepatitis C virus, Huh-7, 48 h.

Read-outs that look alike come from different tables or passages of the source.

As a reminder, the EC50 is the concentration needed to bring the measured effect to its halfway point.

For the compound `NC(=O)C(=O)N1CC2CN(C(=O)c3ccc(Nc4nc(NC5(c6ccc(Cl)cc6)CC5)nc(OCC(F)(F)F)n4)cc3)CC2C1` (centres unmarked) [Compound 1003], the EC50 (read-out: EC50 (nM) 1a (H77C)) lay in the range of 0.01 to 10 nM.

In the case of `O=C(Nc1ccc(F)cc1)C(=O)N1CC2CN(C(=O)c3ccc(Nc4nc(NC5(c6ccc(Cl)cc6)CC5)nc(OCC(F)(F)F)n4)cc3)CC2C1` (centres unmarked) [Compound 1008], under “read-out: EC50 (nM) 1a (H77C)”, the EC50 lay in the range of 0.01 to 10 nM.

`O=C(C(=O)N1CC2CN(C(=O)c3ccc(Nc4nc(NC5(c6ccc(Cl)cc6)CC5)nc(OCC(F)(F)F)n4)cc3)CC2C1)N1CCc2ccccc2C1` (centres unmarked) [Compound 1014]: the EC50 (read-out: EC50 (nM) 1a (H77C)) was 0.01 to 10 nM.

Regarding `CCc1nnc(NC(=O)C(=O)N2CC3CN(C(=O)c4ccc(Nc5nc(NC6(c7ccc(Cl)cc7)CC6)nc(OCC(F)(F)F)n5)cc4)CC3C2)s1` (centres unmarked) [Compound 1019], the EC50 (read-out: EC50 (nM) 1a (H77C)) is 0.01 to 10 nM.

As for `CNC(=O)C(=O)N1CC2CN(C(=O)c3ccc(Nc4nc(NC5(c6ccc(Cl)cc6)CC5)nc(OCC(F)(F)F)n4)cc3)CC2C1` (centres unmarked) [Compound 1017], the EC50 is, setting by setting: (read-out: EC50 (nM) 1a (H77C)) 10 to 1000 nM; (read-out: EC50 (nM) 1a H77C)) 11.1 nM.

Turning to `O=C(Nc1cccc(F)c1)C(=O)N1CC2CN(C(=O)c3ccc(Nc4nc(NC5(c6ccc(Cl)cc6)CC5)nc(OCC(F)(F)F)n4)cc3)CC2C1` (centres unmarked) [Compound 1006], the EC50 (read-out: EC50 (nM) 1a (H77C)) was in the range of 0.01 to 10 nM.

`O=C(NC1CCCCC1)C(=O)N1CC2CN(C(=O)c3ccc(Nc4nc(NC5(c6ccc(Cl)cc6)CC5)nc(OCC(F)(F)F)n4)cc3)CC2C1` (centres unmarked) [Compound 1015]: the EC50 (read-out: EC50 (nM) 1a (H77C)) fell in the range of 0.01 to 10 nM.

Turning to `O=C(Nc1ccc(F)cc1F)C(=O)N1CC2CN(C(=O)c3ccc(Nc4nc(NC5(c6ccc(Cl)cc6)CC5)nc(OCC(F)(F)F)n4)cc3)CC2C1` (centres unmarked) [Compound 1018], for the setting “read-out: EC50 (nM) 1a (H77C)”, the EC50 fell in the range of 0.01 to 10 nM.

Take `CN(C)C(=O)C(=O)N1CC2CN(C(=O)c3ccc(Nc4nc(NC5(c6ccc(Cl)cc6)CC5)nc(OCC(F)(F)F)n4)cc3)CC2C1` (centres unmarked) [Compound 1005]: the EC50 is 0.01 to 10 nM (read-out: EC50 (nM) 1a (H77C)) and 2.68 nM (read-out: EC50 (nM) 1a H77C)).

For `O=C(C(=O)N1CC2CN(C(=O)c3ccc(Nc4nc(NC5(c6ccc(Cl)cc6)CC5)nc(OCC(F)(F)F)n4)cc3)CC2C1)N1CCOCC1` (centres unmarked) [Compound 1004], for the setting “read-out: EC50 (nM) 1a (H77C)”, the EC50 fell in the range of 0.01 to 10 nM.

For `O=C(Nc1nccs1)C(=O)N1CC2CN(C(=O)c3ccc(Nc4nc(NC5(c6ccc(Cl)cc6)CC5)nc(OCC(F)(F)F)n4)cc3)CC2C1` (centres unmarked) [Compound 1020], the EC50 (read-out: EC50 (nM) 1a (H77C)) fell in the range of 0.01 to 10 nM.

On to `Cc1nnc(NC(=O)C(=O)N2CC3CN(C(=O)c4ccc(Nc5nc(NC6(c7ccc(Cl)cc7)CC6)nc(OCC(F)(F)F)n5)cc4)CC3C2)s1` (centres unmarked) [Compound 1016], for which, where the note is “read-out: EC50 (nM) 1a (H77C)”, the EC50 was in the range of 0.01 to 10 nM.

Turning to `Cc1ccc(NC(=O)C(=O)N2CC3CN(C(=O)c4ccc(Nc5nc(NC6(c7ccc(Cl)cc7)CC6)nc(OCC(F)(F)F)n5)cc4)CC3C2)cc1` (centres unmarked) [Compound 1001], the 50% effective concentration (EC50) (read-out: EC50 (nM) 1a (H77C)) fell in the range of 0.01 to 10 nM and the EC50 (read-out: EC50 (nM) 1a H77C)) came out at 0.12 nM.

On to `CC(C)CNC(=O)C(=O)N1CC2CN(C(=O)c3ccc(Nc4nc(NC5(c6ccc(Cl)cc6)CC5)nc(OCC(F)(F)F)n4)cc3)CC2C1` (centres unmarked) [Compound 1012], for which the EC50 (read-out: EC50 (nM) 1a (H77C)) was in the range of 0.01 to 10 nM.

With `O=C(NCc1ccc(F)cc1)C(=O)N1CC2CN(C(=O)c3ccc(Nc4nc(NC5(c6ccc(Cl)cc6)CC5)nc(OCC(F)(F)F)n4)cc3)CC2C1` (centres unmarked) [Compound 1002], the EC50 (read-out: EC50 (nM) 1a (H77C)) lay within 0.01 to 10 nM.

For `Cc1cc(NC(=O)C(=O)N2CC3CN(C(=O)c4ccc(Nc5nc(NC6(c7ccc(Cl)cc7)CC6)nc(OCC(F)(F)F)n5)cc4)CC3C2)no1` (centres unmarked) [Compound 1009], under “read-out: EC50 (nM) 1a (H77C)”, the EC50 was in the range of 0.01 to 10 nM.

Regarding `O=C(C(=O)N1CC2CN(C(=O)c3ccc(Nc4nc(NC5(c6ccc(Cl)cc6)CC5)nc(OCC(F)(F)F)n4)cc3)CC2C1)N1CCCCC1` (centres unmarked) [Compound 1013], the EC50 (read-out: EC50 (nM) 1a (H77C)) was 0.01 to 10 nM.

In the case of `O=C(Nc1ccccc1)C(=O)N1CC2CN(C(=O)c3ccc(Nc4nc(NC5(c6ccc(Cl)cc6)CC5)nc(OCC(F)(F)F)n4)cc3)CC2C1` (centres unmarked) [Compound 1011], under “read-out: EC50 (nM) 1a (H77C)”, the EC50 was in the range of 0.01 to 10 nM.

With `O=C(Nc1cc(F)cc(F)c1)C(=O)N1CC2CN(C(=O)c3ccc(Nc4nc(NC5(c6ccc(Cl)cc6)CC5)nc(OCC(F)(F)F)n4)cc3)CC2C1` (centres unmarked) [Compound 1010], the EC50 (read-out: EC50 (nM) 1a (H77C)) lay in the range of 0.01 to 10 nM.

Consider `O=C(Nc1nncs1)C(=O)N1CC2CN(C(=O)c3ccc(Nc4nc(NC5(c6ccc(Cl)cc6)CC5)nc(OCC(F)(F)F)n4)cc3)CC2C1` (centres unmarked) [Compound 1007], for which the EC50 (read-out: EC50 (nM) 1a (H77C)) lay within 0.01 to 10 nM.
